Where a name gives a salt, the structure may show the parent alone.
Key:
h5-HT2A receptor = molecular target: T1, h5-HT2A receptor (Homo sapiens, UniProt P28223); experiment: Functional activity, FLIPR calcium assay, CHO cells expressing h5-HT2A; type: cell-based; settings: for Emax: CHO, read-out: h5-HT2A Relative Efficacy (%); for EC50: FLIPR, CHO cells, Fluo 3-AM
T1 construct: expressed in transfected cells; host or cells: CHO cells
Description: (§1) The functional activity of compounds of formula (I) was assayed using a Fluorimetric Imaging Plate reader (FLIPR) in the following manner.
(§2) CHO cells expressing either the h5-HT2C or h5-HT2A receptors were counted and plated into standard 96 well microtitre plates before the day of testing to give a confluent monolayer. The following day the cells were dye loaded with the calcium sensitive dye Fluo 3-AM by incubation with serum free culture maintenance media containing plumnic acid and Fluo 3-AM dissolved in DMSO at 37° C. in a CO2 incubator at 95% humidity for approximately 90 minutes. Unincorporated dye was removed by washing with Hanks balanced salt solution containing 20 mM HEPES and 2.5 mM probenecid (the assay buffer) using an automated cell washer to leave a total volume of 100 μl/well.
(§3) The drug (dissolved in 50 μl of assay buffer) was added at a rate of 70 μL/sec to each well of the FLIPR 96 well plate during fluorescence measurements. The measurements are taken at 1 sec intervals and the maximum fluorescent signal was measured (approx 10–15 secs after drug addition) and compared with the response produced by 10 μM 5-HT (defined as 100%) to which it is expressed as a percentage response (relative efficacy). Dose response curves were constructed using Graphpad Prism (Graph Software Inc.).

h5-HT2C receptor = molecular target: T2, h5-HT2C receptor (Homo sapiens, UniProt P28335); experiment: Functional activity, FLIPR calcium assay, CHO cells expressing h5-HT2C; type: cell-based; settings: for Emax: CHO, read-out: h5-HT2C Relative Efficacy (%); for EC50: FLIPR, CHO cells, Fluo 3-AM
T2 construct: expressed in transfected cells; host or cells: CHO cells
T2 sequence (P28335 33-458): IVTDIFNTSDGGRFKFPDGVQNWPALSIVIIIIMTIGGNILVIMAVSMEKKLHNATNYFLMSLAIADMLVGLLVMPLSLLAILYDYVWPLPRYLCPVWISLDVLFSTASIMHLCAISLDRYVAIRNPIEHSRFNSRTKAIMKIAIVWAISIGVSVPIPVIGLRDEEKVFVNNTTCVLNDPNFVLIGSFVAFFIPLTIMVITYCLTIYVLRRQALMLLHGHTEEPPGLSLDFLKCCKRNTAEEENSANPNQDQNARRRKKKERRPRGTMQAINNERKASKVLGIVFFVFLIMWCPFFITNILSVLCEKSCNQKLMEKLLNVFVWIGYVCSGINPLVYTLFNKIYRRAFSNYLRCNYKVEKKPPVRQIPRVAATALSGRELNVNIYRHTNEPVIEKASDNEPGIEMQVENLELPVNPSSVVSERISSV
Description: as §1, §2, §3

5-HT2A receptor = molecular target: T3, 5-HT2A receptor (Homo sapiens, UniProt P28223); experiment: Binding to 5-HT2A receptor, [125I]-DOI, CHO cell line; settings: read-out: Ki (2A)
T3 construct: expressed in transfected cells; host or cells: CHO cell line
T3 sequence (P28223 whole entry): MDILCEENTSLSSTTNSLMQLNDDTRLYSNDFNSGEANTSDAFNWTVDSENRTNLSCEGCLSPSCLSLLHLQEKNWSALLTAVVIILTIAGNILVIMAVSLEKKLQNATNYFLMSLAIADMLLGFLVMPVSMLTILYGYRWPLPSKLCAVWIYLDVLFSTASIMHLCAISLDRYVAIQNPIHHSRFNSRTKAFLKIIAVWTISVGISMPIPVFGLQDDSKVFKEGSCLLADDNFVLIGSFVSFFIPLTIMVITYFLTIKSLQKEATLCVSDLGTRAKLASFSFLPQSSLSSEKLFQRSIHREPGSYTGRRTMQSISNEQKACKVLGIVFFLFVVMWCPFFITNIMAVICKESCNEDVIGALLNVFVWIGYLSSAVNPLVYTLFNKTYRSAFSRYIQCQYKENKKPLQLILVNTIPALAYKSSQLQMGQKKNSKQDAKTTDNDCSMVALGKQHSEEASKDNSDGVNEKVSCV
Description: (§4) The binding of compounds of formula (1) to serotonin receptors was determined in vitro by standard methods. The preparations were investigated in accordance with the assays given hereinafter.
Method (c): For the binding to the 5-HT2A receptor the 5-HT2A receptors were radiolabeled with [^125I]-DOI. The affinity of the compounds for 5-HT2A receptors in a CHO cell line was determined according to the procedure of D. J. McKenna and S. J. Peroutka, J. Neurosci., 1989, 9/10, 3482–90.

human 5-HT2B receptors = molecular target: T4, human 5-HT2B receptors (Homo sapiens, UniProt P41595); experiment: Binding to 5-HT2B receptor, [3H]-5-HT, CHO cell line; settings: read-out: Ki (2B)
T4 construct: expressed in transfected cells; host or cells: CHO cell line
T4 sequence (P41595 whole entry): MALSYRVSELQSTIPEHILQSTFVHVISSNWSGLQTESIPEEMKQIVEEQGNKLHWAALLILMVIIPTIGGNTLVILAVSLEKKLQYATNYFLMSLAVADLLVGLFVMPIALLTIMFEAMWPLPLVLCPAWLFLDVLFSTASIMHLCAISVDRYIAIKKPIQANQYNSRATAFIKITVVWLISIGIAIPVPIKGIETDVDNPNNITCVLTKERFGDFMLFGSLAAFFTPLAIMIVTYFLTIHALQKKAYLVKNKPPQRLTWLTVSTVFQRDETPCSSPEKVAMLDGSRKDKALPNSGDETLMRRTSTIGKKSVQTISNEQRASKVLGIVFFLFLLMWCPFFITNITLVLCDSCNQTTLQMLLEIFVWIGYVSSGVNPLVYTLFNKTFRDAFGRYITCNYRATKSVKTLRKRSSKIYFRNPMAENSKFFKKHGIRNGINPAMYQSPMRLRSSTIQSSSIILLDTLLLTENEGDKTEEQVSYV
Description: as §4
Method (b): For the binding to the 5-HT2B receptor the 5-HT2B receptors were radiolabeled with [3H]-5-HT. The affinity of the compounds for human 5-HT2B receptors in a CHO cell line was determined according to the procedure of K. Schmuck, C. Ullmer, P. Engels and H. Lubbert, FEBS Lett., 1994, 342, 85–90.

5-HT2C receptor = molecular target: T5, 5-HT2C receptor (Homo sapiens, UniProt P28335); experiment: Binding to 5-HT2C receptor, [3H]-5-HT, CHO cell line; settings: read-out: Ki (2C)
T5 construct: expressed in transfected cells; host or cells: CHO cell line
T5 sequence (P28335 33-458): T2 sequence (P28335 33-458)
Description: as §4
Method (a): For the binding to the 5-HT2C receptor the 5-HT2C receptors were radiolabeled with [^3H]-5-HT. The affinity of the compounds for 5-HT2C receptors in a CHO cell line was determined according to the procedure of D. Hoyer, G. Engel and H. O. Kalknan, European J. Pharmacol., 1985, 118, 13–23.

[1] = prolonged period (greater than 6 months); cited from earlier work
rats = settings: cited from earlier work
female volunteers = settings: single injection; cited from earlier work
[2] = test system: obese male and female subjects; settings: subchronic treatment for a 14 day period; cited from earlier work
[3] = maximum fluorescent signal relative to 10 μM 5-HT (defined as 100%)

T1 sequence (P28223 whole entry): as the sequence (P28223 whole entry) above

Question: Which melting point does the source give for `C[C@H](N)CN1CCc2ccc3c(c21)CCO3` (as salt: fumarate) [Compound 3, (S)-1-(2,3,7,8-Tetrahydrofuro[2,3-g]indol-1-yl)-2-propylamine fumarate] here?
Answer: The melting point was 215.5 to 217 °C (dec.).

Question: For `C[C@H](N)CN1CCc2ccc3c(c21)CCCO3` (as salt: fumarate) [Compound 4, (S)-1-(2,3,7,8-Tetrahydro-9H-pyrano[2,3-g]indol-1-yl)-2-propylamine fumarate], which melting point is on record?
Answer: The melting point was 168 to 169 °C.

Question: For `C[C@H](N)CN1CCc2ccc3c(c21)CCS3` (as salt: fumarate) [Compound 5, (S)-1-(2,3,7,8-Tetrahydrothieno[2,3-g]indol-1-yl)-2-propylamine fumarate], which melting point is on record?
Answer: The melting point was 188 to 189.5 °C (dec.).

Question: With `C[C@H](N)CN1CCc2ccc3c(c21)OCCO3` (as salt: fumarate) [Compound 6, (S)-1-(2,3,7,8-Tetrahydro-9H-1,4-dioxino[2,3-g]indol-9-yl)2-propylamine fumarate] as the compound, how does the melting point read?
Answer: The melting point was 173 to 174 °C (dec.).

Question: Which melting point does the source give for `C[C@H](N)CN1CCc2ccc3c(c21)CCCC3` (as salt: fumarate) [Compound 7, (S)-1-(2,3,6,7,8,9-Hexabydro-1H-benz[g]indol-1-yl)]-2-propylamine, fumarate] here?
Answer: The melting point was 178 to 182 °C.

Question: With `C[C@H](N)CN1CCc2ccc3c(c21)CCC3` (as salt: fumarate) [Compound 8, (S)-1-[1-(1,2,3,6,7,8-Hexabydrocyclopent[g]indolyl)]-2-propylamine fumarate] as the compound, how does the melting point read?
Answer: Its melting point is 182 °C (dec.).

Question: With `CCC1CN(CC(C)N)c2c1ccc1c2CCO1` (single isomer, unassigned) [Compound 9, [2S3′(R or S)]-1-(3-Ethyl-2,3,7,8-tetrahydrofuro[2,3-g]indol-1-yl)-2-propylamine fumarate] as the compound, how does the Emax (h5-HT2A receptor; [3]) read?
Answer: Its Emax is 22%.

Question: And the EC50 (h5-HT2A receptor)?
Answer: Its EC50 is 1140 nM.

Question: What about the Emax (h5-HT2C receptor; [3]) of the same compound?
Answer: The Emax was 74%.

Question: What about the EC50 (h5-HT2C receptor) of the same compound?
Answer: Its EC50 is 50 nM.

Question: For `CCC1CN(CC(C)N)c2c1ccc1c2CCO1` (single isomer, unassigned) [Compound 10, [2S,3′(S or R)]-1-(3-Ethyl-2,3,7,8-tetrahydrofuro[2,3-g]indol-1-yl)-2-propylamine fumarate], which EC50 (h5-HT2A receptor) is on record?
Answer: Its EC50 is 403 nM.

Question: What about the “h5-HT2A Relative Efficacy (%)” value (h5-HT2A receptor; [3]) of the same compound?
Answer: Its value is 15%.

Question: What about the EC50 (h5-HT2C receptor) of the same compound?
Answer: The EC50 was 51 nM.

Question: What about the “h5-HT2C Relative Efficacy (%)” value (h5-HT2C receptor; [3]) of the same compound?
Answer: The value was 67%.

Question: Which Ki (5-HT2A receptor) does the source give for `C[C@H](N)CN1CCc2ccc3ccccc3c21` [Compound 1, (S)-1-(Benz[g]indolin-1-yl)-2-propylamine hemi-fumarate] here?
Answer: The Ki was 173 nM.

Question: What about the Emax (h5-HT2A receptor; [3]) of the same compound?
Answer: Its Emax is 51%.

Question: And the EC50 (h5-HT2A receptor)?
Answer: The EC50 was 1370 nM.

Question: What about the Ki (human 5-HT2B receptors) of the same compound?
Answer: The Ki was 39 nM.

Question: What about the Ki (5-HT2C receptor) of the same compound?
Answer: The Ki was 107 nM.

Question: What about the Emax (h5-HT2C receptor; [3]) of the same compound?
Answer: Its Emax is 79%.

Question: And the EC50 (h5-HT2C receptor)?
Answer: Its EC50 is 158 nM.

Question: What does the source list for `C[C@@H](N)CN1CCc2ccc3ccccc3c21` [Compound 2, (R)-1-(Benz[g]indolin-1-yl)-2-propylamine hemi-fumarate]?
Answer: EC50 (h5-HT2A receptor): > 10000 nM; Emax (h5-HT2C receptor; [3]): 44%; EC50 (h5-HT2C receptor): 1720 nM

Question: What does the source list for `C[C@H](N)CN1CCc2ccc3c(c21)CCO3` [Compound 3, (S)-1-(2,3,7,8-Tetrahydrofuro[2,3-g]indol-1-yl)-2-propylamine fumarate]?
Answer: Emax (h5-HT2A receptor; [3]): 81%; EC50 (h5-HT2A receptor): 138 nM; Emax (h5-HT2C receptor; [3]): 94%; EC50 (h5-HT2C receptor): 6 nM

Question: With `C[C@H](N)CN1CCc2ccc3c(c21)CCCO3` [Compound 4, (S)-1-(2,3,7,8-Tetrahydro-9H-pyrano[2,3-g]indol-1-yl)-2-propylamine fumarate] as the compound, how does the Emax (h5-HT2A receptor; [3]) read?
Answer: The Emax was 66%.

Question: What about the EC50 (h5-HT2A receptor) of the same compound?
Answer: Its EC50 is 505 nM.

Question: And the Emax (h5-HT2C receptor; [3])?
Answer: Its Emax is 89%.

Question: What about the EC50 (h5-HT2C receptor) of the same compound?
Answer: The EC50 was 47 nM.

Question: Which Emax (h5-HT2A receptor; [3]) does the source give for `C[C@H](N)CN1CCc2ccc3c(c21)CCS3` [Compound 5, (S)-1-(2,3,7,8-Tetrahydrothieno[2,3-g]indol-1-yl)-2-propylamine fumarate] here?
Answer: The Emax was 77%.

Question: And the EC50 (h5-HT2A receptor)?
Answer: Its EC50 is 48 nM.

Question: And the Emax (h5-HT2C receptor; [3])?
Answer: The Emax was 86%.

Question: And the EC50 (h5-HT2C receptor)?
Answer: Its EC50 is 0.4 nM.

Question: For `C[C@H](N)CN1CCc2ccc3c(c21)OCCO3` [Compound 6, (S)-1-(2,3,7,8-Tetrahydro-9H-1,4-dioxino[2,3-g]indol-9-yl)2-propylamine fumarate], which Ki (5-HT2A receptor) is on record?
Answer: Its Ki is 223 nM.

Question: And the Emax (h5-HT2A receptor; [3])?
Answer: Its Emax is 71%.

Question: What about the EC50 (h5-HT2A receptor) of the same compound?
Answer: The EC50 was 312 nM.

Question: What about the Ki (human 5-HT2B receptors) of the same compound?
Answer: Its Ki is 218 nM.

Question: What about the Ki (5-HT2C receptor) of the same compound?
Answer: Its Ki is 70 nM.

Question: What about the Emax (h5-HT2C receptor; [3]) of the same compound?
Answer: Its Emax is 90%.

Question: What about the EC50 (h5-HT2C receptor) of the same compound?
Answer: Its EC50 is 47 nM.

Question: Which Emax (h5-HT2A receptor; [3]) does the source give for `C[C@H](N)CN1CCc2ccc3c(c21)CCCC3` [Compound 7, (S)-1-(2,3,6,7,8,9-Hexabydro-1H-benz[g]indol-1-yl)]-2-propylamine, fumarate] here?
Answer: Its Emax is 14%.

Question: And the EC50 (h5-HT2A receptor)?
Answer: Its EC50 is 1830 nM.

Question: And the Emax (h5-HT2C receptor; [3])?
Answer: The Emax was 68%.

Question: And the EC50 (h5-HT2C receptor)?
Answer: The EC50 was 440 nM.

Question: For `C[C@H](N)CN1CCc2ccc3c(c21)CCC3` [Compound 8, (S)-1-[1-(1,2,3,6,7,8-Hexabydrocyclopent[g]indolyl)]-2-propylamine fumarate], which Emax (h5-HT2A receptor; [3]) is on record?
Answer: Its Emax is 0%.

Question: And the EC50 (h5-HT2A receptor)?
Answer: Its EC50 is at least 10000 nM.

Question: And the Emax (h5-HT2C receptor; [3])?
Answer: The Emax was 69%.

Question: And the EC50 (h5-HT2C receptor)?
Answer: Its EC50 is 217 nM.

Question: Which “food intake and body weight” value [1] does the source give for `CCN[C@@H](C)Cc1cccc(C(F)(F)F)c1` [dexfenfluramine] here?
Answer: Its value is “decrease food intake and body weight”.

Question: With `CCNC(C)Cc1cccc(C(F)(F)F)c1` (stereo not drawn) [fenfluramine] as the compound, how does the “food intake and body weight” value [1] read?
Answer: The value was “decrease food intake and body weight”.

Question: Which “appearance of the behavioural satiety sequence” value (rats; rat, in vivo) does the source give for `Clc1cccc(N2CCNCC2)c1` [mCPP, m-chlorophenylpiperazine] here?
Answer: The value was “accelerate the appearance of the behavioural satiety sequence”.

Question: And the “food intake in rats” value (rats; rats)?
Answer: The value was “reduce food intake”.

Question: What about the “food intake in female volunteers” value (female volunteers) of the same compound?
Answer: The value was “decreased food intake”.

Question: What about the “appetite and body weight of obese subjects” value [2] of the same compound?
Answer: The value was “decreased the appetite and body weight”.
